Converted amounts (≈) assume the structure as drawn. “And” between values parts separate entries of the source, which are not always exact repeats. Equal values may be shown once. Read-outs that look alike come from different tables or passages of the source.
Key:
[1] = tested on: CV-1 Normal Monkey Kidney Epithelial; experiment: Clonogenic dye screening assay, CV-1 cells (IC50); format: cell-based, African green monkey; conditions: for IC50 (concentration at which 50% of the cells of the culture are killed): cell line 1, CV-1 normal control; for IC50: Primates
Outline: (§1)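 Cells seeded 16-30 h ahead (2000 CX-1 or 1000 CV-1 per well), exposed to serially diluted dyes for 3 h at 37 °C, rinsed three times, then grown into colonies. Eight-point curves spanned 0.32-0.0015 μg/mL (CX-1) and 3.2-0.025 μg/mL (CV-1). IC50 is the concentration killing 50% of cells.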

[2] = tested on: CRL 1420 Human Pancreatic Carcinoma; experiment: Initial in vitro screening, pancreatic carcinoma cells; format: cell-based; conditions: for Selectivity: IC50 CV-1 / IC50 cell line 4 (pancreatic carcinoma); for IC50: read-out: IC50 (concentration at which 50% of the cells of the culture are killed)
Source text: (§2) Other publications have shown that some cyanine dyes show anti-cancer activity. See I. Minami, Y. Kozai, H. Nomura and T. Tashiro, Chem. Phar. Bull. 30:3106 (1982); W. M. Anderson, D. L. Delinick, L. Benninger, J. M. Wood, S. T. Smiley and L. B. Chen, Biochemical Pharmacology, 45:691 (1993). […] (See L. G. S. Brooker, L. A. Sweet, Science, 105, (1947) and I. Minami, Y. Kozai, H. Nomura, T. Tashiro, Chem. Pharm. Bull., 30,3106 (1982) on chemotherapeutic investigations of cyanine dyes.) Table I lists initial in vitro screening results in various cell lines and a comparison with Adriamycin, which is a widely used chemotherapeutic agent.
(§3) Description of Cell Line • 1. CV-1 Normal Monkey Kidney Epithelial (control) • 2. CX-1 Human Colon Carcinoma • 3. Human Breast Carcinoma • 4. Human Pancreatic Carcinoma • 5. Human Bladder Carcinoma • 6. Human Lung Carcinoma • 7. Human Squamous Cell Carcinoma • 8. Human Adrenal Cortex Carcinoma

[3] = tested on: EJ Human Bladder Carcinoma; experiment: Initial in vitro screening, bladder carcinoma cells; format: cell-based; conditions: for Selectivity: IC50 CV-1 / IC50 cell line 5 (bladder carcinoma); for IC50 (concentration at which 50% of the cells of the culture are killed) / IC50: cell line 5, EJ human bladder carcinoma, unit from method; for IC50: read-out: IC50 (concentration at which 50% of the cells of the culture are killed)
Source text: as §2, §3

[4] = tested on: CX-1 Human Colon Carcinoma; experiment: Clonogenic dye screening assay, CX-1 cells (IC50); format: cell-based; parameters: CX: unit not given here; conditions: for Selectivity: IC50 CV-1 / IC50 cell line 2 (CX-1); for IC50: Homo sapiens; for CX (IC50 in the CX-1 cell line): 3 hrs treatment, unit from method b117-118; for CV/CX: selectivity ratio of IC50 values; for CV/CX (selectivity, kill ratio): ratio of IC50 in normal CV-1 line to IC50 in carcinoma CX-1 line
Outline: as §1

[5] = tested on: SCC 68 Human Squamous Cell Carcinoma; experiment: Initial in vitro screening, squamous cell carcinoma cells; format: cell-based; conditions: for Selectivity: IC50 CV-1 / IC50 cell line 7 (squamous cell carcinoma); for IC50: read-out: IC50 (concentration at which 50% of the cells of the culture are killed)
Source text: as §2, §3

[6] = cell line 4, CRL 1420 human pancreatic carcinoma, unit from method
[7] = cell line 7, SCC 68 human squamous cell carcinoma, unit from method
[8] = CV-1, cell line 1, CV-1 normal control, unit from method, read-out: IC50 (concentration at which 50% of the cells of the culture are killed)
[9] = CX-1, cell line 2, CX-1, unit from method, read-out: IC50 (concentration at which 50% of the cells of the culture are killed)
[10] = CV-1, Table XIX, CV-1 cells, read-out: CV
[11] = CX-1, Table XIX, CX-1 cells, read-out: CX

| SMILES | Selectivity [2] | Selectivity [3] | Selectivity [4] | Selectivity [5] | IC50 [1, 8] [µg/mL] | IC50 [2, 6] [µg/mL] | IC50 [3] [µg/mL] | IC50 [4, 9] [µg/mL] | IC50 [5, 7] [µg/mL] | CX (IC50 in the CX-1 cell line) ([4]; colonies after 7-10 days) [µg/mL] | CV/CX ([4]; Table XIX) | CV/CX (selectivity, kill ratio) [4] | further results |
| --- | --- | --- | --- | --- | --- | --- | --- | --- | --- | --- | --- | --- | --- |
| CCN1C(=CC=Cc2sc3cc4ccccc4cc3[n+]2CC)Sc2cc3ccccc3cc21 [AC-2] | >60 | >60 | >60 | >60 |  |  |  |  |  |  |  |  | IC50 (concentration at which 50% of the cells of the culture are killed) ([1]; unit from method): 0.30 µg/mL; IC50 (concentration at which 50% of the cells of the culture are killed) [2, 6]: <.005 µg/mL; IC50 (concentration at which 50% of the cells of the culture are killed) [3]: <.005 µg/mL; IC50 (concentration at which 50% of the cells of the culture are killed) ([4]; cell line 2, CX-1, unit from method): <.005 µg/mL; IC50 (concentration at which 50% of the cells of the culture are killed) [5, 7]: <.005 µg/mL |
| COc1cccc2c1C(=O)c1c(O)c3c(c(O)c1C2=O)C[C@@](O)(C(=O)CO)C[C@@H]3O[C@H]1C[C@H](N)[C@H](O)[C@H](C)O1 [Adriamycin, reference compound] | 13 | 8 | 1.5 | 10 | 0.8 (≈ 1.47 µM) | 0.06 (≈ 0.11 µM) | 0.1 (≈ 0.184 µM) | 0.55 (≈ 1.01 µM) | 0.08 (≈ 0.147 µM) |  |  |  |  |
| CCN1/C(=C/C=C/c2sc3ccccc3[n+]2CC)Sc2ccccc21.[I-] [Dye D-101] | 100 | >100 | 100 | 13.3 |  |  |  |  |  | <0.005 | 100.000 and 75.000 | 100 and >100.0 | IC50 (concentration at which 50% of the cells of the culture are killed) ([1]; unit from method): 0.5 µg/mL and 0.50 µg/mL; IC50 (concentration at which 50% of the cells of the culture are killed) [3]: <0.005 µg/mL; CX ([4]; Table XIX, CX-1 cells): 0.004; CV/CX ([4]; Table XV): 100.0 |
| CCN1/C(=C\C=C\C2=[N+](CC)c3ccccc3C2(C)C)C(C)(C)c2ccccc21 [Dye D-103] |  |  |  |  |  |  |  |  |  |  | 500.000 | 500 | IC50 ([1]; CV-1, read-out: CV): 5 µg/mL; IC50 ([1]; CV-1, read-out: CV (IC50 in the CV-1 cell line)): 5 µg/mL; IC50 ([4]; CX-1, read-out: CX): 0.01 µg/mL; IC50 ([4]; CX-1, read-out: CX (IC50 in the CX-1 cell line)): 0.01 µg/mL; CV/CX ([4]; Table XV): 500.0 |
| CCN1/C(=C/C=C/c2sc3cc4ccccc4cc3[n+]2CC)Sc2cc3ccccc3cc21 [Dye D-109] |  |  |  |  |  |  |  |  |  | <0.005 | 75.000 | 60 and >60.0 | IC50 [1, 10]: 0.3 µg/mL; IC50 [4, 11]: 0.004 µg/mL |
| CCN1C(=CC=Cc2sc3cc4ccccc4nc3[n+]2CC)Sc2cc3ccccc3nc21 [Dye D-150] | 100 | 300 | 100 | 30 | 3 | 0.03 | 0.01 | 0.03 | 0.1 |  | 100.000 | 100 | IC50 ([1]; CV-1, 3 hrs treatment, colonies after 7-10 days, unit from method, read-out: CV (IC50 in the CV-1 cell line)): 3 µg/mL; IC50 [1, 10]: 3 µg/mL; IC50 ([4]; CX-1, 3 hrs treatment, colonies after 7-10 days, unit from method, read-out: CX (IC50 in the CX-1 cell line)): 0.03 µg/mL; IC50 [4, 11]: 0.03 µg/mL |
| CCN1/C(=C/C=C/c2sc3cc4ccccc4cc3[n+]2CC)Sc2cc3ccccc3cc21 [Dye D-160] |  |  |  |  | 0.3 | < 0.005 | < 0.005 | < 0.005 | < 0.005 | 0.05 | 75.000 | 100 | CX ([4]; Table XIX, CX-1 cells): 0.004 |

— patent US20060099712A1, “Correlation of anti-cancer activity of dyes with redox potentials” (Eastman Kodak Company, priority 2004, published 2006)
